{"source": "patent US6939707B2", "about": "“Isolated nucleic acid molecules which encode GAGE genes and uses thereof” (Ludwig Institute for Cancer Research, priority 1993, dated 2005)", "assay_type_in_all_cases": "cell-based, human", "key": {"CTL 76/6": {"test_system": "CTL 76/6", "test": "TNF release by CTL 76/6 on peptide-pulsed COS-7 cells transfected with HLA-Cw6 cDNA", "settings": "peptide 20 ug/ml, 90 minutes at 37° C., 3000 CTLs, TNF in supernatant after eighteen hours tested on WEHI-164-13 cells", "experimental": "Each peptide was pulsed into COS-7 cells previously transfected with HLA-Cw6 cDNA, and combined with CTL 76/6 to determine if TNF release would be induced. Peptides (20 ug/ml) were added to COS-7 cells which had been transfected with the HLA-Cw6 cDNA twenty-four hours previously After incubation at 37° C. for 90 minutes, medium was discarded, and 3000 CTLs were added in 100 microliters of medium, containing 25 units/ml of IL-2. Eighteen hours later, TNF content of supernatant was tested via determining toxicity on WEHI-164-13 cells. […] The second peptide was used for further experiments."}, "LB33-EBV cells": {"test_system": "LB33-EBV cells", "test": "51Cr release lysis of peptide-incubated LB33-EBV cells (HLA-Cw6 positive) by CTL 76/6", "settings": "CTL 76/6, effector:target ratio 10:1, four hours at 37° C., varying peptide concentration (FIG. 3)", "experimental": "The lysis assay employed was a chromium release assay following Herin et at., Int. J. Cancer 39;390-396 (1987), the disclosure of which is incorporated by reference. The assay, however, is described herein. The target melanoma cells were grown in vitro, and then resuspended at 10^7 cells/ml in DMEM, supplemented with 10 mM Hepes and 30% FCS, and incubated for 45 minutes at 37° C. with 200 μCi/ml of Na(^51Cr)O4. Labeled cells were washed three times with DMEM supplemented with 10 mM Hepes. These were then resuspended in DMEM supplemented with 10 mM Hepes and 10% FCS, after which 100 ul aliquots containing 10^3 cells, were distributed into 96 well microplates. Samples of PBLs were added in 100 ul of the same medium, and assays were earned out in duplicate. Plates were centrifuged for 4 minutes at 100 g, and incubated for four hours at 37° C. in an 8% CO2 atmosphere.\nPlates were centrifuged again, and 100 ul aliquots of supernatant were collected and counted. Percentage of ^51Cr release was calculated as follows: [formula] where ER is observed, experimental ^51Cr release, SR is spontaneous release measured by incubating 10^3 labeled cells in 200 ul of medium alone, and MR is maximum release, obtained by adding 100 ul 0.3% Triton X-100 to target cells.\nVarious peptides based upon SEQ ID NO: 13 were synthesized, and tested, some of which are presented below. To carry out these tests ^51Cr labelled LB33-EBV cells, which are HLA-Cw6 positive, were incubated with one of the following peptides:\nLevels of lysis for positive (“F^+”, MZ2-MEL.3.1), and negative (“F”; MZ2-MEL.2.2.5) control cells are indicated, in FIG. 3."}, "HLA-Cw6 positive cells": {"test_system": "HLA-Cw6 positive cells", "test": "Lysis of peptide-pulsed HLA-Cw6 positive cells by CTL 82/31", "settings": "HLA-Cw6 positive cells pulsed with peptide; results not reported in detail", "experimental": "In results not reported here, a second CTL was tested (CTL 82/31)."}, "HLA-A29": {"test_system": "HLA-A29", "test": "51Cr release lytic assay with GAGE-3 to 6 derived peptides (HLA-A29)", "settings": "FIG. 8; successive deletions of SEQ ID NO: 21", "protocol": "The lysis assay employed was a chromium release assay following Herin et at., Int. […] The target melanoma cells were grown in vitro, and then resuspended at 10^7 cells/ml in DMEM, supplemented with 10 mM Hepes and 30% FCS, and incubated for 45 minutes at 37° C. with 200 μCi/ml of Na(^51Cr)O4. Labeled cells were washed three times with DMEM supplemented with 10 mM Hepes. These were then resuspended in DMEM supplemented with 10 mM Hepes and 10% FCS, after which 100 ul aliquots containing 10^3 cells, were distributed into 96 well microplates. Samples of PBLs were added in 100 ul of the same medium, and assays were earned out in duplicate. Plates were centrifuged for 4 minutes at 100 g, and incubated for four hours at 37° C. in an 8% CO2 atmosphere.\nThe peptide (SEQ ID NO: 21) was tested in a ^51Cr release experiment, following the method described supra.\nSuccessive deletions were prepared, and tested for their ability to provoke lysis, again using the ^51Cr lytic assay."}}, "note": "Ends that are not written are not given here."}
{"substance": "MSWRGRSTYRPRPRR [SEQ ID NO: 12]", "values": [{"measurement": "TNF induced", "setting": "CTL 76/6", "result": "less than 10 pg/ml"}]}
{"substance": "YRPRPRRY [SEQ ID NO: 4, octamer tumor rejection antigen presented by HLA-Cw6]", "values": [{"measurement": "CTL lysis (51Cr release)", "setting": "LB33-EBV cells", "result": "the best peptide"}, {"measurement": "lysis by second CTL (CTL 82/31)", "setting": "HLA-Cw6 positive cells", "result": "lysed HLA-Cw6 positive cells"}]}
{"substance": "TRPRPRRYV [SEQ ID NO: 6]", "values": [{"measurement": "CTL lysis (51Cr release)", "setting": "LB33-EBV cells", "result": "induced CTL lysis albeit to a lesser extent"}]}
{"substance": "TYRPRPRRYVEPPEMI [SEQ ID NO: 13]", "values": [{"measurement": "TNF induced", "setting": "CTL 76/6", "result": "more than 30 pg/ml"}]}
{"substance": "TYRPRPRRY [SEQ ID NO: 5]", "values": [{"measurement": "CTL lysis (51Cr release)", "setting": "LB33-EBV cells", "result": "induced CTL lysis albeit to a lesser extent"}]}
{"substance": "RSTYYWPRPRRYVQ [SEQ ID NO: 21]", "values": [{"measurement": "ability to provoke lysis (51Cr release)", "setting": "HLA-A29", "result": "did provoke lysis"}]}
{"substance": "Tyr Tyr Trp Pro Arg Pro Arg Arg Tyr [SEQ ID NO: 22]", "values": [{"measurement": "ability to provoke lysis (51Cr release)", "setting": "HLA-A29", "result": "shortest peptide to provoke lysis"}]}
